Columns and labels:
[1] = system: Mycobacterium tuberculosis; assay: Antimycobacterial activity against Mycobacterium tuberculosis H37Rv ATCC 27294 assessed as growth inhibition at 10 uM after 5 days relative to control; type: functional; details: H37Rv ATCC 27294, 120 h, read-out: GI
[2] = system: Mycolicibacterium smegmatis; assay: Antimycobacterial activity against Mycobacterium smegmatis MC2 155 ATCC 700084 assessed as growth inhibition at 10 uM after 5 days relative to control; type: functional; details: MC2 155 ATCC 700084, 120 h, read-out: GI

Compound: CCCCCCCCn1cc(CN2CCCCC2)c2c(OC)cccc21
- inhibition of growth at 10 µM [1]: 99%
- inhibition of growth at 10 µM [2]: 99%

Compound: CCCCCCCCn1cc(CNC2CCCC2)c2cc(F)ccc21
- inhibition of growth at 10 µM [1]: 99%
- inhibition of growth at 10 µM [2]: 99%

Compound: CCCCCCCCn1cc(CN2CCCCCC2)c2cc(OC)ccc21
- inhibition of growth at 10 µM [1]: 99%
- inhibition of growth at 10 µM [2]: 99%

Compound: CC(C)=CCC/C(C)=C/Cn1cc(CN2CCN(C)CC2)c2cc(F)ccc21
- inhibition of growth at 10 µM [1]: 99%
- inhibition of growth at 10 µM [2]: 99%

Compound: CCCCCCCCn1cc(CN2CCCC2)c2cc(F)ccc21
- inhibition of growth at 10 µM [1]: 99%
- inhibition of growth at 10 µM [2]: 99%

Compound: CCCCCCCCn1cc(CN2CCCCCC2)c2ccc(F)cc21
- inhibition of growth at 10 µM [1]: 99%
- inhibition of growth at 10 µM [2]: 99%

Compound: CCCCCCCCn1cc(CN2CCCCC2)c2c(F)cccc21
- inhibition of growth at 10 µM [1]: 99%
- inhibition of growth at 10 µM [2]: 99%

Compound: CCCN(CC)Cc1cn(C/C=C(\C)CCC=C(C)C)c2ccc(F)cc12
- inhibition of growth at 10 µM [1]: 99%
- inhibition of growth at 10 µM [2]: 99%

Compound: Fc1ccc2c(c1)c(CN1CCCCC1)cn2Cc1ccccc1
- inhibition of growth at 10 µM [1]: 99%
- inhibition of growth at 10 µM [2]: 99%

Compound: CCCCCCCCn1cc(CN2CCC3(CC2)OCCO3)c2cc(OC)ccc21
- inhibition of growth at 10 µM [1]: 99%
- inhibition of growth at 10 µM [2]: 99%

Compound: CCCCCCCCn1cc(CNC23CC4CC(CC(C4)C2)C3)c2ccc(F)cc21
- inhibition of growth at 10 µM [1]: 99%
- inhibition of growth at 10 µM [2]: 99%

Compound: Fc1ccc2c(c1)c(CN1CCCCC1)cn2CCC1CCCCC1
- inhibition of growth at 10 µM [1]: 99%
- inhibition of growth at 10 µM [2]: 99%

Compound: CC(C)=CCC/C(C)=C/Cn1ccc2cc(F)ccc21
- inhibition of growth at 10 µM [1]: 99%
- inhibition of growth at 10 µM [2]: 99%

Compound: CCCCn1cc(CN2CCCCC2)c2cc(F)ccc21
- inhibition of growth at 10 µM [1]: 99%
- inhibition of growth at 10 µM [2]: 99%

Compound: COc1ccc2c(c1)c(CN1CCCCC1)cn2C/C=C(\C)CCC=C(C)C
- inhibition of growth at 10 µM [1]: 99%
- inhibition of growth at 10 µM [2]: 99%

Compound: CCCCCCCCn1cc(CN2CCC(C)CC2)c2c(OC)cccc21
- inhibition of growth at 10 µM [1]: 99%
- inhibition of growth at 10 µM [2]: 99%

Compound: CCCCCCCCn1cc(CN2CCC3(CC2)OCCO3)c2c(OC)cccc21
- inhibition of growth at 10 µM [1]: 99%
- inhibition of growth at 10 µM [2]: 99%

Compound: CCCCCCCCn1cc(CN2CCCCC2)c2ccc(F)cc21
- inhibition of growth at 10 µM [1]: 99%
- inhibition of growth at 10 µM [2]: 99%

Compound: CCN(CC)Cc1cn(C/C=C(\C)CCC=C(C)C)c2ccc(F)cc12
- inhibition of growth at 10 µM [1]: 99%
- inhibition of growth at 10 µM [2]: 99%

Compound: CC(C)=CCC/C(C)=C/Cn1cc(CN2CCCCC2)c2cc(Cl)ccc21
- inhibition of growth at 10 µM [1]: 99%
- inhibition of growth at 10 µM [2]: 99%

Compound: CC(C)=CCC/C(C)=C/Cn1cc(CN2CCC(C)CC2)c2cc(F)ccc21
- inhibition of growth at 10 µM [1]: 99%
- inhibition of growth at 10 µM [2]: 99%

Compound: CCCCCCCCn1cc(CN2CCC(C)CC2)c2ccc(F)cc21
- inhibition of growth at 10 µM [1]: 99%
- inhibition of growth at 10 µM [2]: 99%

Compound: CC(C)=CCC/C(C)=C/Cn1cc(CN2CCCCCC2)c2cc(F)ccc21
- inhibition of growth at 10 µM [1]: 99%
- inhibition of growth at 10 µM [2]: 99%

Compound: CCCN(CCC)Cc1cn(C/C=C(\C)CCC=C(C)C)c2ccc(F)cc12
- inhibition of growth at 10 µM [1]: 99%
- inhibition of growth at 10 µM [2]: 99%

Compound: CCCCCCCCn1cc(CNC23CC4CC(CC(C4)C2)C3)c2cccc(F)c21
- inhibition of growth at 10 µM [1]: 99%
- inhibition of growth at 10 µM [2]: 99%

Compound: Fc1ccc2[nH]cc(CN3CCCCC3)c2c1
- inhibition of growth at 10 µM [1]: 99%
- inhibition of growth at 10 µM [2]: 99%

Compound: N#CCCCn1cc(CN2CCCCC2)c2cc(F)ccc21
- inhibition of growth at 10 µM [1]: 99%
- inhibition of growth at 10 µM [2]: 99%

Compound: Fc1ccc2c(c1)c(CN1CCCCC1)cn2CCCOc1ccccc1
- inhibition of growth at 10 µM [1]: 99%
- inhibition of growth at 10 µM [2]: 99%

Compound: CCCCCCCCn1cc(CN2CCCCCC2)c2cccc(OC)c21
- inhibition of growth at 10 µM [1]: 99%
- inhibition of growth at 10 µM [2]: 99%

Compound: CCCCCCCCn1cc(CN(C)C)c2cc(F)ccc21
- inhibition of growth at 10 µM [1]: 99%
- inhibition of growth at 10 µM [2]: 99%

Compound: CCCCCCCCn1cc(CN2CCCCC2)c2cc(F)ccc21
- inhibition of growth at 10 µM [1]: 99%
- inhibition of growth at 10 µM [2]: 99%

Compound: CC(C)=CCC/C(C)=C/Cn1cc(CN2CCCC2)c2cc(F)ccc21
- inhibition of growth at 10 µM [1]: 99%
- inhibition of growth at 10 µM [2]: 99%

Compound: CCCCCCCCn1cc(CN2CCCCCC2)c2c(OC)cccc21
- inhibition of growth at 10 µM [1]: 99%
- inhibition of growth at 10 µM [2]: 99%

Compound: CCCCCCCCn1cc(CN2CCCCC2)c2ccc(OC)cc21
- inhibition of growth at 10 µM [1]: 99%
- inhibition of growth at 10 µM [2]: 99%

Compound: CCCCCCCCn1ccc2cc(F)ccc21
- inhibition of growth at 10 µM [1]: 99%
- inhibition of growth at 10 µM [2]: 99%

Compound: CC(C)=CCC/C(C)=C/Cn1cc(C(=O)N2CCCCC2)c2cc(F)ccc21
- inhibition of growth at 10 µM [1]: 99%
- inhibition of growth at 10 µM [2]: 99%

Compound: CCCCN(CCCC)Cc1cn(C/C=C(\C)CCC=C(C)C)c2ccc(F)cc12
- inhibition of growth at 10 µM [1]: 99%
- inhibition of growth at 10 µM [2]: 99%

Compound: CCCCCCCCn1cc(CN2CCCCC2)c2cc(OC)ccc21
- inhibition of growth at 10 µM [1]: 99%
- inhibition of growth at 10 µM [2]: 99%
